We go through nine molecules from DBAASP.

Common to all, as to assay: ≥ marks a high value that may be exact or a test limit, other limits are often not marked, values filed in µg/mL are converted to µM
In assay [1] the test system is Enterobacter cloacae HNTCC 53001.
Assay [2] deals with Enterococcus faecalis ATCC 29212.
In assay [3] the test system is Klebsiella pneumoniae KK3 9904.
The test system of assay [4] is Staphylococcus epidermidis RP62A.
Assay [5] has as its system Escherichia coli ATCC 25922.
Assay [6] has as its system Proteus mirabilis ATCC 25933.
Assay [7] deals with Candida albicans ATCC 90028.
For assay [8], the system named is Pseudomonas aeruginosa ATCC 27853.
The test system of assay [9] is Staphylococcus aureus NCTC 8325.
For assay [10], the system named is Aspergillus fumigatus.
The test system of assay [11] is Streptococcus gordonii ATCC 10558.
Assay [12] has as its system Streptococcus mutans GS-5.
Assay [13] relates to Streptococcus sanguinis ATCC 49295.
The test system of assay [14] is Escherichia coli ATCC 11775.
Assay [15] relates to Botrytis cinerea.
The subject of assay [16] is Staphylococcus aureus ATCC 12600.
Assay [17] concerns Candida albicans ATCC 10231.
The test system of assay [18] is Pseudomonas aeruginosa ATCC 9027.
In assay [19] the test system is Candida albicans ATCC 36232.
The test system of assay [20] is Micrococcus luteus ATCC 9341.
Assay [21] relates to Escherichia coli ATCC 2592.
The subject of assay [22] is Xanthomonas campestris pv. Vesicatoria 2133-2.
Assay [23] has as its system Erwinia amylovora PMV 6076.
Assay [24] concerns Pseudomonas syringae pv. syringae EPS 94.
Assay [25] relates to Bacillus subtilis.
The test system of assay [26] is Salmonella typhimurium.
The subject of assay [27] is Escherichia coli.
Assay [28] deals with Proteus vulgaris.
In assay [29] the test system is Streptococcus pyogenes.
Assay [30] relates to Pseudomonas aeruginosa.
Assay [31] has as its system Staphylococcus epidermidis.
For assay [32], the system named is Candida albicans.
Assay [33] deals with Enterobacter cloacae ATCC 13047.
In assay [34] the test system is Klebsiella pneumoniae ATCC 700603.

Structures are written as SMILES. Converted amounts (≈) assume the structure as drawn. A value given as a limit tells only on which side of the number the result lay.

Turning to `CC[C@H](C)[C@H](NC(=O)CNC(=O)[C@H](CCC(N)=O)NC(=O)[C@H](Cc1ccccc1)NC(=O)[C@@H](NC(=O)[C@H](CCCCN)NC(=O)[C@H](CCCCN)NC(=O)[C@H](CC(C)C)NC(=O)[C@H](C)NC(=O)[C@H](CCCCN)NC(=O)[C@H](CC(C)C)NC(=O)CN)C(C)C)C(=O)N[C@@H](Cc1cnc[nH]1)C(=O)N[C@@H](CCCCN)C(=O)N[C@@H](C)C(=O)N[C@H](C(=O)N[C@@H](CCCCN)C(=O)N[C@@H](CC(C)C)C(=O)N[C@H](C(=O)N[C@@H](CC(N)=O)C(=O)N[C@@H](CC(N)=O)C(=O)N[C@@H](Cc1cnc[nH]1)C(=O)N[C@H](C(=O)N[C@@H](CCC(N)=O)C(=O)O)C(C)C)[C@@H](C)CC)[C@@H](C)CC` [GLKALKKVFQGIHKAIKLINNHVQ], the MIC – broadly, the least concentration at which growth counts as inhibited – is 10 µM (≈ 27 µg/mL) in assay [1]; greater than 80 µM in [2]; 5 µM (≈ 13.5 µg/mL) in [3]; 20 µM (≈ 54 µg/mL) in [4]; 5 µM (≈ 13.5 µg/mL) in assay [5]; no less than 80 µM in [6]. Also, the MIC was no less than 80 µM in [7], 10 µM (≈ 27 µg/mL) in assay [8] and no less than 40 µM in [9].

As to `CC(C)[C@H](NC(=O)[C@H](CO)NC(=O)[C@H](CCCN=C(N)N)NC(=O)[C@H](CCCN=C(N)N)NC(=O)[C@H](CCCN=C(N)N)NC(=O)[C@H](CCCN=C(N)N)NC(=O)CN)C(=O)N[C@@H](CCC(N)=O)C(=O)N[C@@H](Cc1c[nH]c2ccccc12)C(=O)N[C@@H](CS)C(=O)N[C@@H](C)C(=O)O` [GRRRRSVQWCA], the MIC in [10] is 5 µM (≈ 6.87 µg/mL); in assay [2], 72.8 µM (≈ 100 µg/mL); in [11], no less than 46.6 µM; in assay [5] it was 18.2 µM (≈ 25 µg/mL); in assay [12] it was no less than 34.9 µM; in assay [13], no less than 101 µM.

Take `CC[C@H](C)[C@H](NC(=O)[C@H](CC(=O)O)NC(=O)[C@@H](NC(=O)[C@@H](NC(=O)CN)C(C)C)C(C)C)C(=O)N[C@@H](CC(C)C)C(=O)N[C@@H](CCCCN)C(=O)NCC(=O)N[C@@H](C)C(=O)N[C@@H](C)C(=O)N[C@@H](CCCCN)C(=O)N[C@@H](CC(=O)O)C(=O)N[C@@H](CC(C)C)C(=O)N[C@@H](C)C(=O)NCC(=O)N[C@@H](Cc1c[nH]cn1)C(=O)N[C@@H](CC(C)C)C(=O)N[C@@H](C)C(=O)N[C@H](C(=O)N[C@@H](CCCCN)C(=O)N[C@H](C(=O)N[C@@H](CCSC)C(=O)N[C@@H](CC(N)=O)C(=O)N[C@@H](CCCCN)C(=O)N[C@@H](CC(C)C)C(N)=O)C(C)C)[C@@H](C)O` [GVVDILKGAAKDLAGHLATKVMNKL]: the minimum inhibitory concentration (MIC) was no less than 50 µM in assay [1]; greater than 200 µM in assay [2]; no less than 100 µM in [3]; no less than 200 µM in [4]; 50 µM (≈ 128 µg/mL) in [5]; no less than 200 µM in assay [6]. For the same molecule, the values for the MIC in [7], in [8] and in assay [9] were no less than 200 µM, 100 µM (≈ 256 µg/mL) and no less than 200 µM, respectively.

On to `CC[C@H](C)[C@H](N)C(=O)N[C@@H](CC(N)=O)C(=O)N1CCC[C@H]1C(=O)N[C@@H](CCCCN)C(=O)N[C@@H](CO)C(=O)N[C@H](C(=O)N[C@@H](CCC(N)=O)C(=O)N[C@@H](CO)C(=O)N[C@@H](CC(C)C)C(=O)N[C@@H](CC(C)C)C(N)=O)C(C)C` [INPKSVQSLL], for which the MIC was no less than 200 µM in assay [14], no less than 200 µM in assay [15], no less than 200 µM in assay [16] and greater than 200 µM in [17].

For `CC(C)C[C@H](NC(=O)[C@H](CS)NC(=O)[C@H](Cc1cnc[nH]1)NC(=O)[C@H](C)NC(=O)[C@H](C)NC(=O)[C@H](CS)NC(=O)[C@H](C)NC(=O)[C@H](C)NC(=O)[C@@H](N)CCCCN)C(=O)N[C@@H](Cc1c[nH]c2ccccc12)C(=O)N[C@@H](CCCN=C(N)N)C(N)=O` [KAACAAHCLWR], the minimum inhibitory concentration (MIC) was greater than 163 µM in assay [18], no less than 163 µM in assay [19], no less than 163 µM in [20] and no less than 163 µM in assay [21].

As to `CC[C@H](C)[C@H](NC(=O)[C@H](CCCCN)NC(=O)[C@H](CCCCN)NC(=O)[C@H](Cc1ccccc1)NC(=O)[C@H](CC(C)C)NC(=O)[C@H](CCCCN)NC(=O)[C@H](CCCCN)NC(=O)[C@H](CC(C)C)NC(=O)[C@H](Cc1ccc(O)cc1)NC(=O)[C@H](CCCCN)NC(=O)[C@H](CC(C)C)NC(=O)[C@@H](NC(=O)[C@H](CCCCN)NC(=O)[C@H](CCCCN)NC(=O)[C@H](Cc1ccccc1)NC(=O)[C@H](CC(C)C)NC(=O)[C@H](CCCCN)NC(=O)[C@@H](N)CCCCN)[C@@H](C)CC)C(=O)N[C@@H](CC(C)C)C(=O)N[C@@H](CCCCN)C(=O)N[C@@H](Cc1ccc(O)cc1)C(=O)N[C@@H](CC(C)C)C(=O)N[C@@H](CCCCN)C(=O)N[C@@H](CC(=O)O)C(=O)N[C@@H](CCC(=O)O)C(=O)N[C@@H](CC(C)C)C(=O)O` [KKLFKKILKYLKKLFKKILKYLKDEL], the MIC in [22], in [23] and in assay [24] was 14.1 µM (≈ 46.8 µg/mL) in each case.

For `CC(C)C[C@H](NC(=O)[C@H](CCCN=C(N)N)NC(=O)[C@@H]1CCCN1C(=O)[C@H](Cc1cnc[nH]1)NC(=O)[C@@H]1CCCN1C(=O)[C@@H]1CCCN1C(=O)[C@H](CCCN=C(N)N)NC(=O)[C@@H]1CCCN1C(=O)[C@@H]1CCCN1C(=O)[C@H](Cc1cnc[nH]1)NC(=O)[C@@H]1CCCN1C(=O)[C@@H]1CCCN1C(=O)[C@H](CCCN=C(N)N)NC(=O)[C@@H]1CCCN1C(=O)[C@@H]1CCCN1C(=O)[C@H](Cc1cnc[nH]1)NC(=O)[C@@H]1CCCN1C(=O)[C@@H]1CCCN1C(=O)[C@H](CCCN=C(N)N)NC(=O)[C@@H]1CCCN1)C(=O)O` [PRPPHPPRPPHPPRPPHPRL], the minimum inhibitory concentration (MIC) in assay [25] is no less than 64 µM; in [26] it was 0.5 µM (≈ 1.17 µg/mL); in assay [27], 0.5 µM (≈ 1.17 µg/mL); in assay [28], 2 µM (≈ 4.67 µg/mL); in [29] it was no less than 64 µM; in [30] it was 16 µM (≈ 37.3 µg/mL). The MIC in assay [31] was no less than 64 µM.

Consider `CC(C)C[C@H](NC(=O)[C@H](Cc1ccccc1)NC(=O)[C@@H]1CCCN1C(=O)[C@H](Cc1c[nH]c2ccccc12)NC(=O)[C@H](Cc1c[nH]c2ccccc12)NC(=O)[C@H](Cc1c[nH]c2ccccc12)NC(=O)[C@@H]1CCCN1C(=O)[C@H](Cc1ccccc1)NC(=O)[C@@H](N)CCCN=C(N)N)C(=O)N[C@@H](CCCN=C(N)N)C(=O)O` [RFPWWWPFLR], for which the figures for the minimum inhibitory concentration (MIC) in [10] and in assay [32] were no less than 335 µM and greater than 671 µM, respectively.

Turning to `CC[C@H](C)[C@H](NC(=O)[C@H](C)NC(=O)[C@H](CCCCN)NC(=O)[C@@H](NC(=O)[C@@H](NC(=O)[C@@H](N)C(C)C)[C@@H](C)CC)C(C)C)C(=O)N[C@@H](C)C(=O)N[C@H](C(=O)N[C@@H](CC(C)C)C(=O)N[C@@H](C)C(=O)N[C@@H](CO)C(=O)N[C@@H](CCCCN)C(=O)N[C@@H](CC(C)C)C(=O)N[C@@H](CC(C)C)C(=O)O)[C@@H](C)O` [VIVKAIATLASKLL], the MIC in assay [33] is no less than 55.6 µM; in assay [34], 55.6 µM (≈ 80 µg/mL); in assay [7] it was 27.8 µM (≈ 40 µg/mL).
